Consider 4 molecules from ChEMBL document CHEMBL1151373, “Antitumor agents. 49 tricin, kaempferol-3-O-beta-D-glucopyranoside and (+)-nortrachelogenin, antileukemic principles from Wikstroemia indica” (1981).

What all share (type): functional
Assay [1] concerns P388. Briefly: Cytotoxicity against mouse P388 cells xenografted in BDF1 mouse at 12.5 mg/kg relative to control.
Assay [2] relates to P388. Briefly: Cytotoxicity against mouse P388 cells xenografted in BDF1 mouse at 6 mg/kg relative to control.
Assay [3] is described as follows: Growth inhibition of mouse EAC cells xenografted in CF1 mouse at 3 mg/kg/day, ip. Conditions: Ehrlich, route intraperitoneal.
For assay [4], the system named is P388. The experiment in a line: Cytotoxicity against mouse P388 cells xenografted in CDF1 mouse at 16 mg/kg relative to control.
For assay [5], the system named is P388. The experiment in a line: Cytotoxicity against mouse P388 cells xenografted in CDF1 mouse at 1 mg/kg relative to control.
The test system of assay [6] is P388. Briefly: Cytotoxicity against mouse P388 cells xenografted in CDF1 mouse at 4 mg/kg relative to control.
Assay [7] has as its system P388. The experiment in a line: Cytotoxicity against mouse P388 cells xenografted in BDF1 mouse at 4 mg/kg relative to control.
The test system of assay [8] is P388. The experiment in a line: Cytotoxicity against mouse P388 cells xenografted in BDF1 mouse at 8 mg/kg relative to control.
The subject of assay [9] is P388. The experiment in a line: Cytotoxicity against mouse P388 cells xenografted in BDF1 mouse at 16 mg/kg relative to control.
Assay [10] relates to P388. Briefly: Cytotoxicity against mouse P388 cells xenografted in CDF1 mouse at 2 mg/kg relative to control.
For assay [11], the system named is P388. The experiment in a line: Cytotoxicity against mouse P388 cells xenografted in CDF1 mouse at 10 mg/kg relative to control.

`O=c1c(O[C@@H]2O[C@H](CO)[C@@H](O)[C@H](O)[C@H]2O)c(-c2ccc(O)cc2)oc2cc(O)cc(O)c12` [ASTRAGALIN]: the T/C worked out at 130% in the assay on P388 [1] and 122% with P388 [2].
Molecule `COc1cc2cc(Oc3ccc4ccc(=O)oc4c3)c(=O)oc2cc1O` [DAPHNORETIN] registered an inhibition in vivo at 3 mg/kg/day in assay [3] of 97%.
Turning to `COc1cc(-c2cc(=O)c3c(O)cc(O)cc3o2)cc(OC)c1O` [TRICIN], the T/C with P388 [1] is 174%; with P388 [2], 133%.
In the case of `COc1cc(C[C@@H]2COC(=O)[C@@]2(O)Cc2ccc(O)c(OC)c2)ccc1O` [WIKSTROMOL], the T/C with P388 [4] was 154%; in the assay on P388 [5], 130%; in the assay with P388 [6] it was 137%; in the assay with P388 [7], 122%; in the assay with P388 [8], 130%; in the assay with P388 [9], 130%. The T/C with P388 [10] is recorded as 141%; in the assay on P388 [11], 146%.
